Results from patent EP1566447A1, “Glimepiride- and insulin-induced glycosylphosphatidylinositol-specific phospholipase C regulation” (priority 2004, dated 2005).
“Also recorded” adds a separate entry of the source.

Legend:
rat adipocytes = experiment: glucose transport assay; assay type: cell-based
Procedure: Glucose transport was determined as described in "Müller, G. et al., (1994) J. Cell Biol. 126: 1267-1276" by incubation of 10,000-20,000 washed adipocytes with 2-deoxy-D-[2,6-^3H]glucose at 50 µM final conc. (0.33 µCi/ml) in 50-µl portions for 20 min at 37°C in the absence or presence of 20 µM cytochalasin B.
Table 3: Isolated rat adipocytes were incubated in the presence of methyl-β-cyclodextrin (m-β-CD, 10 mM, 50 min), CBDP (300 µM, electroporation, followed by washing and subsequent incubation for 30 min), PIG41 (10 µM, 15 min), sodium orthovanadate (1 mM, 15 min), trypsin (10 µg/ml, 15 min followed by treatment with 0.5 M NaCl and subsequent washing) and N-ethylmaleimide (1 mM, 5 min followed by addition of DTT). After addition of GPI-2350 (50 µM final conc.) to one half of the adipocyte suspension and further incubation (60 min, 37°C), portions of the cells were assayed for 5'-Nuc activity in the isolated IcDIGs. The increase in 5'-Nuc during the basal incubation was set at 100 arb. units. Other portions of the cells (after 15 min incubation) were assayed for glucose transport which was set at 100 arb. units for the basal incubation. Means ± SD of at least 3 independent cell incubations with activity measurements in triplicate each are given.
Fig. 8: Effect of GPI-2350 on the glimepiride/insulin-induced metabolic activity. Isolated rat adipocytes were treated (5 min, 37°C) without or with GPI-2350 (Panel A, 50 µM; Panel B, increasing conc.; Panel C, 5 µM, 50 µM) and then incubated (15 min, 37°C) in the absence or presence of insulin (Ins, 10 nM) or glimepiride (Gli, 20 µM or increasing conc.) as indicated. The adipocytes were then assayed for glucose transport and isoproterenol-induced lipolysis. The activity is given relative to the absence of GPI-2350 in the control reaction (Panels A, basal) or in the insulin- and glimepiride-stimulated state (Panels B and C, set at 100). Means ± SD of at least 5 independent cell incubations with activity measurements in triplicate each are given.

IRS-1 and pp59^Lyn = experiment: tyrosine phosphorylation of pp59^Lyn and IRS-1; assay type: cell-based, rat
Procedure: Polypeptides separated by SDS-PAGE were transferred to polyvinylidene difluoride membranes using the semidry procedure as described in "Müller, G. et al., (2001) Mol. Cell. Biol. 21: 4553-4567". Washed membranes were incubated anti-caveolin-1 (1:2000), anti-pp59^Lyn (1:1250), anti-aP (1:500), anti-5'-Nuc (1:750) and anti-IRS-1 (1:2000) antibodies for 4 h at 15°C. Washed membranes were incubated with horseradish peroxidase-coupled secondary goat anti-mouse (1:2000) or goat anti-rabbit IgG (1:4000) antibodies. Labeled proteins were visualized by enhanced chemiluminescence.
Fig. 7: Effect of GPI-2350 on the glimepiride/insulin-induced activation of signaling proteins. Isolated rat adipocytes were treated (5 min, 37°C) without or with GPI-2350 (Panels A, 50 µM; Panels B, increasing conc.) and then incubated (120 min, 37°C) in the absence or presence of insulin (10 nM) or glimepiride (20 µM). IRS-1 and pp59^Lyn were immunoprecipitated from the defatted postnuclear infranatant (see Materials and Methods) and solubilized combined hc/IcDIGs, respectively, and then immunoblotted for phosphotyrosine. […]

bacterial PC-PLC = target: T1, bacterial PC-PLC (Bacillus cereus, UniProt P09598); experiment: selectivity: PC-PLC assay; assay type: biochemical; conditions: 50 µM
T1 construct: purchased Sigma/Aldrich (Deisenhofen, Germany)

GPI-PLC = conditions: read-out: IC50 for inhibition of the GPI-PLC; isolated intact hcDIGs; Fig. 4 Panels B, D
bovine AChE = target: T2, bovine AChE (Bos taurus, UniProt P23795); experiment: selectivity: AChE activity; assay type: biochemical; conditions: 50 µM
T2 construct: solubilized and partially purified bovine erythrocyte AChE; from tissue; host or cells: bovine erythrocytes
Procedure: Electroporation was performed as described in "Müller, G. et al., (2000) Mol. Cell. Biol. 20: 4708-4723". Lipolysis was determined as release of glycerol or fluorescent NBD-FA from prelabeled and isoproterenol-stimulated adipocytes as described in "Müller, G. et al., (2003) Biochimie 85: 1245-1256". Gce1 was detected by photolabeling of solubilized plasma membranes or hc/IcDIGs (10-50 µg protein) with 8-N3-[^32P]cAMP and subsequent phosphorimaging as described in "Müller, G. et al., (1994) Biochemistry 33: 12149-12159". 5'-Nuc, aP and AChE activities were measured according to "Eliakim, R. et al., (1990) Biochim. Biophys. Acta 1355: 293-302". Protein was determined using the BCA protein determination kit from Pierce (Rockford, IL) and BSA as calibration standard. SDS-PAGE was performed using precast gels (Novex, San Diego, CA; 10 % Bis-Tris resolving gel, morpholinopropanesulfonic acid-SDS running buffer). Lumiimages were evaluated on a Lumilmager using Lumilmager software (Roche Diagnostics). Phosphor- and fluorescence images were processed and quantified using the Storm 860 Phosphorlmager system (Molecular Dynamics, Gelsenkirchen, Germany). Figures were constructed using the Adobe Photoshop software (Adobe Systems, Mountain View, CA).
Fig. 3: Selectivity of GPI-2350. […]

T2 sequence (P23795 other isoform, or with tags, fused parts or gaps): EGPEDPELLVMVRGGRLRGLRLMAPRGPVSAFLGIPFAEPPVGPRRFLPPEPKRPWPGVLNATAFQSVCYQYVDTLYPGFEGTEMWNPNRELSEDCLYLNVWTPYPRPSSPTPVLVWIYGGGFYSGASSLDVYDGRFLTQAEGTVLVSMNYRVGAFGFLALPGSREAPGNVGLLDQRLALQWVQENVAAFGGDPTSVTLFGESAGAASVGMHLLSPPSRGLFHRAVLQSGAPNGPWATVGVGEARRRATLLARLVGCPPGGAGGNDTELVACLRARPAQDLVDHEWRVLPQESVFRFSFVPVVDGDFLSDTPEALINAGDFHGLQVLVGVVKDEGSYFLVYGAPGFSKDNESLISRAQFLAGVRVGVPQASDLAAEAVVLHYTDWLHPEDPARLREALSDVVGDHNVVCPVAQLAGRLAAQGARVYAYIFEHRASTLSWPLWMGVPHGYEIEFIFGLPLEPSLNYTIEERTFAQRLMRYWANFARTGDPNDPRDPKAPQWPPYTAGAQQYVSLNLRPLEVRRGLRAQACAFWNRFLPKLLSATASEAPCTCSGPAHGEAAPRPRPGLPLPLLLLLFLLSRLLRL
T1 sequence (P09598 39-283 limits assumed): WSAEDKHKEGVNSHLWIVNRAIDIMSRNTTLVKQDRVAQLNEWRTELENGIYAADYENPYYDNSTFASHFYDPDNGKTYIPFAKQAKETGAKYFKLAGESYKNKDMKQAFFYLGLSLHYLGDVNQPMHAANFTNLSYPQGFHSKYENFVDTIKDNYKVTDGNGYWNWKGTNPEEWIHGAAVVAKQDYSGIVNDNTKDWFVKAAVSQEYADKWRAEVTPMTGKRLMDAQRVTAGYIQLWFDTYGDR

SMILES: CCCCCCCCCCCCP1(=O)O[C@@H]2[C@H](O)[C@@H](O)[C@H](O)[C@@H](O)[C@@H]2O1 (mixture of isomers) [GPI-2350, myo-inositol-1,2-cyclo-dodecylphosphonic acid]
- effect on stimulation of glucose transport in response to glimepiride (rat adipocytes; 50 µM): almost complete blockade; also recorded: lower than control values
- IC50 (rat adipocytes; Rattus norvegicus, Adipocyte): 2000 to 5000 nM
- inhibition at 50 µM (rat adipocytes; Rattus norvegicus, Adipocyte, 50 µM, insulin 10 nM, read-out: reduction of insulin stimulation of glucose transport): ≤ 25%
- effect on tyrosine phosphorylation of pp59^Lyn and IRS-1 in response to glimepiride (IRS-1 and pp59^Lyn; 50 µM): almost complete blockade
- effect on metabolic insulin signaling (tyrosine phosphorylation of IRS-1 and inhibition of lipolysis) (IRS-1 and pp59^Lyn; insulin-stimulated): only marginally reduced
- effect on phospholipase activity (bacterial PC-PLC): not significantly affected
- IC50 (GPI-PLC): 1000 nM
- effect on AChE activity (bovine AChE): not significantly affected
